Measurements published in ChEMBL document CHEMBL1133866, “Discovery of human CCR5 antagonists containing hydantoins for the treatment of HIV-1 infection” (Bioorg Med Chem Lett, 2001).

Experiments:
[1] = target: T1, C-C chemokine receptor type 5 (Homo sapiens, UniProt P51681); experiment: Percent inhibition of the [125I]-MIP-1 alpha binding towards C-C chemokine receptor type 5 stably expressed in Chinese hamster ovary (CHO) cells at a concentration of 1 uM; type: cell-based
Target sequence in this assay (P51681 whole entry, looked up): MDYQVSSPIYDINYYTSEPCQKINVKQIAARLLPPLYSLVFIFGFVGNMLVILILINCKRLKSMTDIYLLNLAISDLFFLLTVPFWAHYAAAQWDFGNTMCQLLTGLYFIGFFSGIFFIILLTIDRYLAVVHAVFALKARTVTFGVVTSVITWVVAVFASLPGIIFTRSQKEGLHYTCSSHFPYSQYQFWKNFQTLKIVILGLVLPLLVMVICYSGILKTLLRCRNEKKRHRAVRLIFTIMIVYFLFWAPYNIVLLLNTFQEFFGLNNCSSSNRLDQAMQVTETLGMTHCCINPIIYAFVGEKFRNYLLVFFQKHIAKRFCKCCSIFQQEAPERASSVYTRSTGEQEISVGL

[2] = target: T1, C-C chemokine receptor type 5; experiment: Percent inhibition of the [125I]-MIP-1 alpha binding towards C-C chemokine receptor type 5 stably expressed in Chinese hamster ovary (CHO) cells at a concentration of 1.7 uM; type: cell-based
Target sequence in this assay (P51681 whole entry, looked up): as above

[3] = target: T1, C-C chemokine receptor type 5; experiment: Binding affinity against C-C chemokine receptor type 5 stably expressed in Chinese hamster ovary (CHO) cells using [125I]-MIP-1 alpha as the radioligand; type: cell-based
Target sequence in this assay (P51681 whole entry): as the sequence (P51681 whole entry, looked up) above

[4] = target: C-X-C chemokine receptor type 4 (Homo sapiens, UniProt P61073); experiment: Inhibitory activity against C-X-C chemokine receptor type 4
[5] = target: T2, C-C chemokine receptor type 3 (Homo sapiens, UniProt P51677); experiment: Inhibitory activity against C-C chemokine receptor type 3
T2 sequence (P51677 whole entry): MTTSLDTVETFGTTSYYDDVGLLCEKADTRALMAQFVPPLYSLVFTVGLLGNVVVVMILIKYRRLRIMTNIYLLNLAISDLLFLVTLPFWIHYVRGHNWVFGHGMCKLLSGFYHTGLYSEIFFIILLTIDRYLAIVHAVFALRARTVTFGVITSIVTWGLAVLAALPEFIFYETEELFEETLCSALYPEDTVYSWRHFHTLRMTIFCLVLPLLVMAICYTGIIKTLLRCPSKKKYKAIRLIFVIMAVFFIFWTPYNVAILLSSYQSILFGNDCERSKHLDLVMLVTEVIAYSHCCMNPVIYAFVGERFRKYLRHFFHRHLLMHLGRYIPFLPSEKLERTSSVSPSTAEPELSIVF

[6] = target: T3, C-C chemokine receptor type 1 (Homo sapiens, UniProt P32246); experiment: Inhibitory activity against C-C chemokine receptor type 1
T3 sequence (P32246 whole entry): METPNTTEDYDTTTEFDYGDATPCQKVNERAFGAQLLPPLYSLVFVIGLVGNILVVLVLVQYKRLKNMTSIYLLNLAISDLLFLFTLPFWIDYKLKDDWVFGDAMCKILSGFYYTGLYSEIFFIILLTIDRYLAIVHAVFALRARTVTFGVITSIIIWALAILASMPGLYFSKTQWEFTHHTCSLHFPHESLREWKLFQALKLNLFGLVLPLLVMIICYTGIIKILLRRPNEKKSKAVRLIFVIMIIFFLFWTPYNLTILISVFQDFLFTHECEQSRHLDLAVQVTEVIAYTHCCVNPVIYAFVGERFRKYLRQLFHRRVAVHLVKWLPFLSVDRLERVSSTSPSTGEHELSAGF

[7] = target: T4, C-C chemokine receptor type 4 (Homo sapiens, UniProt P51679); experiment: Inhibitory activity against C-C chemokine receptor type 4
T4 sequence (P51679 whole entry): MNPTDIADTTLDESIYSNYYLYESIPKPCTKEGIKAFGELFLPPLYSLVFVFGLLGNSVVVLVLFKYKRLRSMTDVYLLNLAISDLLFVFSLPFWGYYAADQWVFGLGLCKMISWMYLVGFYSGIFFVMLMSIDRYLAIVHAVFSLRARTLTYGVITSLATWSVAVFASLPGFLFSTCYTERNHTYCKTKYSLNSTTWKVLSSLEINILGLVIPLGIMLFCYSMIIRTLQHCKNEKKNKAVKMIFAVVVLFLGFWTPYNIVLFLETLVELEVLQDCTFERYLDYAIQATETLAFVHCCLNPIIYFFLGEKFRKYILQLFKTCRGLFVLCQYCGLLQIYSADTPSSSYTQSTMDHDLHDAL

[8] = target: C-C chemokine receptor type 2 (Homo sapiens, UniProt P41597); experiment: Inhibitory activity against C-C chemokine receptor type 2
[9] = tested on: Human immunodeficiency virus 1; experiment: Antiviral activity against HIV-1 viral replication in isolated peripheral blood mononuclear cells (PBMCs).; type: functional
[10] = target: T1, C-C chemokine receptor type 5; experiment: Percent inhibition of the [125I]-MIP-1 alpha binding towards C-C chemokine receptor type 5 stably expressed in Chinese hamster ovary (CHO) cells at a concentration of 10 uM; type: cell-based
Target sequence in this assay (P51681 whole entry, looked up): as the sequence (P51681 whole entry, looked up) above

Sequence of C-X-C chemokine receptor type 4 (P61073 whole entry): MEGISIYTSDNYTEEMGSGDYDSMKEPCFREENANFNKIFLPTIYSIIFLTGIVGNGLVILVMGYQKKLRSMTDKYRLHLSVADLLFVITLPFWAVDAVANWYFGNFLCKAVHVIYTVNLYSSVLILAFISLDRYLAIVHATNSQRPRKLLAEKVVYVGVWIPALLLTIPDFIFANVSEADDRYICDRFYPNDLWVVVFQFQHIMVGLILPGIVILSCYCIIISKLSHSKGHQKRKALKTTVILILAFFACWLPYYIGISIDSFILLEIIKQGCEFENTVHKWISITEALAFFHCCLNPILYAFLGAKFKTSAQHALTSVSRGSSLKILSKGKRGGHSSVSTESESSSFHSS
Sequence of C-C chemokine receptor type 2 (P41597 whole entry): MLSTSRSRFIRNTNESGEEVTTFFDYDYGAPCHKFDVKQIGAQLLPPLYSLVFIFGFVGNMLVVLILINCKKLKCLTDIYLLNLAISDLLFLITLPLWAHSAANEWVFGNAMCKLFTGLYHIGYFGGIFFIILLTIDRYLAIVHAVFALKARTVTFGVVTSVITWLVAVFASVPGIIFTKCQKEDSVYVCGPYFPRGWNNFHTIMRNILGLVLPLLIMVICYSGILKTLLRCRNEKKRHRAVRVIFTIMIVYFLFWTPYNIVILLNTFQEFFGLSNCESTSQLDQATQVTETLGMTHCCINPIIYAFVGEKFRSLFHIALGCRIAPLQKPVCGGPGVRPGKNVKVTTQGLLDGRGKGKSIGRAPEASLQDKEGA

Compound: O=C1[C@@H](Cc2ccccc2)N(Cc2ccccc2)C(=O)N1CC(CCN1CCC(c2ccccc2)CC1)c1cccc(Cl)c1 (stereo partly drawn)
- inhibition [1]: 40%

Compound: O=C1N[C@H](Cc2ccccc2)C(=O)N1CC(CCN1CCC2(CC1)CSc1ccccc12)c1cccc(Cl)c1 (stereo partly drawn)
- inhibition [2]: 24%

Compound: O=C1N[C@H](Cc2ccccc2)C(=O)N1CC(CCN1CCC(c2ccccc2)CC1)c1cccc(Cl)c1 (stereo partly drawn)
- IC50 [3]: 250 nM

Compound: C=CCN(C(=O)OCc1ccccc1)C1CCN(CCC(CN2C(=O)N[C@H](Cc3c[nH]c4ccccc34)C2=O)c2cccc(Cl)c2)CC1 (stereo partly drawn)
- IC50 [4]: > 1000 nM
- IC50 [5]: > 1000 nM
- IC50 [6]: > 1000 nM
- IC50 [3]: 3 nM
- IC50 [7]: > 1000 nM
- IC50 [8]: > 1000 nM
- IC95 [9]: 12500 nM

Compound: C=CCN(C(=O)OCc1ccccc1)C1CCN(CCC(CN2C(=O)N[C@H](Cc3c[nH]c4ccccc34)C2=O)c2ccccc2)CC1 (stereo partly drawn)
- IC50 [4]: > 1000 nM
- IC50 [5]: > 1000 nM
- IC50 [6]: > 1000 nM
- IC50 [3]: 7 nM
- IC50 [7]: > 1000 nM
- IC50 [8]: > 1000 nM
- IC95 [9]: > 3000 nM

Compound: O=C1N[C@H](Cc2c[nH]cn2)C(=O)N1CC(CCN1CCC(c2ccccc2)CC1)c1ccccc1 (stereo partly drawn)
- inhibition [1]: 25%

Compound: O=C1N[C@H](Cc2c[nH]c3ccccc23)C(=O)N1CC(CCN1CCC(c2ccccc2)CC1)c1ccccc1 (stereo in doubt; 24)
- inhibition [1]: 71%

Compound: CCN(C(=O)OCc1ccccc1)C1CCN(CCC(C)(CN2C(=O)N[C@H](Cc3c[nH]c4ccccc34)C2=O)c2cccc(Cl)c2)CC1 (stereo partly drawn)
- IC50 [3]: 77 nM

Compound: O=C1N[C@H](Cc2csc3ccccc23)C(=O)N1CC(CCN1CCC(c2ccccc2)CC1)c1cccc(Cl)c1 (stereo partly drawn)
- inhibition [1]: 67%

Compound: O=C1CC2(CCN(CCC(CN3C(=O)N[C@H](c4ccccc4)C3=O)c3cccc(Cl)c3)CC2)c2ccccc21 (stereo partly drawn)
- IC50 [3]: 606 nM

Compound: O=C1N[C@H](Cc2ccccc2)C(=O)N1CC(CCN1CCC2(CC1)C[S+]([O-])c1ccccc12)c1cccc(Cl)c1 (stereo partly drawn)
- inhibition [2]: 39%

Compound: CC(CCN1CCC(c2ccccc2)CC1)(CN1C(=O)N[C@H](Cc2c[nH]c3ccccc23)C1=O)c1ccccc1 (stereo partly drawn)
- inhibition [1]: 80%

Compound: O=C1CC2(CCN(CCC(CN3C(=O)N[C@H](Cc4ccccc4)C3=O)c3cccc(Cl)c3)CC2)c2ccccc21 (stereo partly drawn)
- IC50 [3]: 200 nM

Compound: Cn1cc(C[C@H]2NC(=O)N(CC(CCN3CCC(c4ccccc4)CC3)c3cccc(Cl)c3)C2=O)c2ccccc21 (stereo partly drawn)
- inhibition [1]: 43%

Compound: C=CCN(C(=O)OCc1ccccc1)C1CCN(CCC(C)(CN2C(=O)N[C@H](Cc3c[nH]c4ccccc34)C2=O)c2cccc(Cl)c2)CC1 (stereo partly drawn)
- IC50 [4]: > 1000 nM
- IC50 [5]: > 1000 nM
- IC50 [6]: > 1000 nM
- IC50 [3]: 32 nM
- IC50 [7]: > 1000 nM
- IC50 [8]: > 1000 nM

Compound: CCN(C(=O)OCc1ccccc1)C1CCN(CCC(C)(CN2C(=O)N[C@H](Cc3c[nH]c4ccccc34)C2=O)c2ccccc2)CC1 (stereo partly drawn)
- IC50 [4]: > 1000 nM
- IC50 [5]: > 1000 nM
- IC50 [6]: > 1000 nM
- IC50 [3]: 4 nM
- IC50 [7]: > 1000 nM
- IC50 [8]: > 1000 nM
- IC95 [9]: 12500 nM

Compound: CCN(C(=O)OCc1ccccc1)C1CCN(CCC(CN2C(=O)N[C@H](Cc3c[nH]c4ccccc34)C2=O)c2ccccc2)CC1 (stereo partly drawn)
- IC50 [4]: > 1000 nM
- IC50 [5]: > 1000 nM
- IC50 [6]: > 1000 nM
- IC50 [3]: 13 nM
- IC50 [7]: > 1000 nM
- IC50 [8]: > 1000 nM
- IC95 [9]: 25000 nM

Compound: O=C1CC2(CCN(CCC(CN3C(=O)N[C@@H](c4ccccc4)C3=O)c3cccc(Cl)c3)CC2)c2ccccc21 (stereo partly drawn)
- inhibition [1]: 52%

Compound: CCN(C(=O)OCc1ccccc1)C1CCN(CCC(CN2C(=O)N[C@H](Cc3c[nH]c4ccccc34)C2=O)c2cccc(Cl)c2)CC1 (stereo partly drawn)
- IC50 [4]: > 1000 nM
- IC50 [5]: > 1000 nM
- IC50 [6]: > 1000 nM
- IC50 [3]: 2 nM
- IC50 [7]: > 1000 nM
- IC50 [8]: > 1000 nM
- IC95 [9]: 12500 nM

Compound: C=CCN(C(=O)OCc1ccccc1)C1CCN(CCC(C)(CN2C(=O)N[C@H](Cc3c[nH]c4ccccc34)C2=O)c2ccccc2)CC1 (stereo partly drawn)
- IC50 [4]: > 1000 nM
- IC50 [5]: > 1000 nM
- IC50 [6]: > 1000 nM
- IC50 [3]: 5 nM
- IC50 [7]: > 1000 nM
- IC50 [8]: > 1000 nM
- IC95 [9]: > 3000 nM

Compound: CC(CCN1CCC(c2ccccc2)CC1)(CN1C(=O)N[C@H](Cc2c[nH]c3ccccc23)C1=O)c1cccc(Cl)c1 (stereo partly drawn)
- IC50 [3]: 100 nM

Compound: O=C1N[C@H](Cc2c[nH]c3ccccc23)C(=O)N1CC(CCN1CCC(c2ccccc2)CC1)c1cccc(Cl)c1 (stereo in doubt)
- IC50 [3]: 25 nM

Compound: CN1C(=O)N(CC(CCN2CCC(c3ccccc3)CC2)c2cccc(Cl)c2)C(=O)[C@H]1Cc1ccccc1 (stereo partly drawn)
- inhibition [1]: 52%

Compound: O=C1N[C@H](Cc2c[nH]c3ccccc23)C(=O)N1CC(CCN1CCC(c2ccccc2)CC1)c1ccccc1 (stereo in doubt; 22)
- inhibition [1]: 71%

Compound: CS(=O)(=O)N1CC2(CCN(CCC(CN3C(=O)N[C@H](Cc4ccccc4)C3=O)c3cccc(Cl)c3)CC2)c2ccccc21 (stereo partly drawn)
- inhibition [1]: 55%

Compound: O=C1N[C@H](Cc2c[nH]c3ccccc23)C(=O)N1CC(CCN1CCC(c2ccccc2)CC1)c1cccc(Cl)c1 (single isomer, unassigned)
- IC50 [3]: 80 nM

Compound: C[C@H]1NC(=O)N(CC(CCN2CCC(c3ccccc3)CC2)c2cccc(Cl)c2)C1=O (stereo partly drawn)
- inhibition [10]: 43%
